From US20250223610A1, “MEASUREMENT OF SOMATIC L1 RETROTRANSPOSITION ACTIVITY” (SZEGEDI BIOLÓGIAI KUTATÓKÖZPONT, priority 2022, published 2025)
“Also recorded” adds a separate entry of the source. Blank lines part the entries; values can stand above or below the molecule they belong to.

Assays:
[1] = tested on: somatic L1 retrotransposition; assay: SYBR Green-based intronless EGFP qPCR on liver DNA of ORFeus reporter bearing Fah-/- mice; format: in vivo; details: 1 mg/kg IP twice weekly from NTBC withdrawal; liver samples after three months; preliminary results
Text: Multiple qPCR-based methods have already been published offering the possibility to measure the amount of intron-free EGFP copies produced during retrotransposition of the ORFeus reporter (Mita, Sun et al. 2020). Based on these published methods, we have also started to quantify our results.
NTBC was withdrawn after hydrodynamic plasmid delivery.
To measure the retrotransposition events of the synthetic L1 element we carried out genomic exon-exon junction qPCR analysis of the spliced, intronless EGFP using two different qPCR detection chemistry. SYBR Green based qPCR was done using PerfeCTa SYBR Green SuperMix (Quantabio). Cycling conditions were as follows: 95° C. for 7 min, 4 cycles of 10 s at 95° C., 15 s at 66° C. (−1° C./cycle, no acquisition), followed by 40 cycles of 5 s at 95° C., 10 s at 62° C. The following primers were used: […]
Probe-based qPCR detection was done as previously described (Mita, Sun et al. 2020) using PerfeCTa qPCR ToughMix (Quantabio). All qPCR reactions were performed on a Rotor-Gene Q instrument (Qiagen) in triplicates using 87 ng of gDNA. Analysis was carried out with the Rotor-Gene Q software (Qiagen). Relative changes in expression levels were calculated using the ΔCT method (Livak and Schmittgen 2001) SYBR Green and probe-based qPCR results were normalized to measurements of the Olfr16 and Rpl21 internal control genes, respectively.

[2] = tested on: somatic L1 retrotransposition; assay: FACS measurement of EGFP-positive hepatocytes isolated from ORFeus carrying Fah-/- mice; details: 1 million hepatocytes per sample; Decitabine 1 mg/kg IP twice weekly
Experimental: For evaluating alternative detection methods we investigated the outcome of Decitabine (5-aza-2′-deoxycytidine) treatments in the assay of the invention. 10 Fah^−/− animals were injected hydrodynamically and after NTBC withdrawal, 5 were started on Decitabine and 5 animals were kept without drug treatment as a control group. Under our current drug treatment regime administration of drugs starts at the same time as NTBC withdrawal.
To test this approach, 2-2 animals from Decitabine-treated and control experimental groups were subjected to liver perfusion and hepatocyte isolation.
Mice were housed under 12 h light-dark cycle at 22° C. with free access to water and regular rodent chow. […] Fah^−/− mice were treated with 8 mg/l Orfadin® (Nitisinone, NTBC) (Swedish Orphan Biovitrum) in drinking water. NTBC was withdrawn after hydrodynamic plasmid delivery. […] Dosing, scheduling, and the route of administration of all drugs and chemical compounds were determined according to the manufacturer's instructions and literature data. […] The body weight of the mice was monitored continuously. […]
Procurement of liver for hepatocyte isolation was done under sodium pentobarbital (Nembutal) (Sigma Aldrich) anaesthesia. […] Cell numbers were determined using a Burker chamber. Cell viability was determined by trypan blue exclusion test. […]

[3] = tested on: somatic L1 retrotransposition; assay: Stereomicroscopic macrovisualization of EGFP positive hepatocyte colonies in liver of Fah-/- mice carrying the ORFeus reporter; format: in vivo; details: 5 mg/kg IP twice weekly from NTBC withdrawal; livers examined after 3 months
Text: In these proof of concept studies the present inventors have used an L1-ORF2-free ORFeus and amiR-free construct variant (shown in FIG. 3B). First, the ORFeus-expressing transposon and the hyperPB transposase helper plasmid were co-delivered hydrodynamically into the liver of Fah^−/− mice, then the curative drug nitisinone (NTBC) was withdrawn (FIG. 2A). In those hepatocytes where hydrodynamic transfection is successful, the hyperactive transposase helper enzyme is likely to catalyse the “cut and paste” transposition reaction presumably leading to an integration into the host chromosomes (Skipper, Andersen et al. 2013).
FICZ was administered by intraperitoneal (IP) injection at a dose of 5 mg/kg body weight twice weekly. […]
The results of EGFP macrovisualization were summarized in FIG. 5 for the control, FICZ-treated and MeIQx-treated experimental groups. The number of EGFP-positive hepatocyte cell colonies detectable by stereomicroscopy in the liver of each animal was counted and per-animal values were plotted on a box diagram. […]
Pictures of whole mouse livers were taken with an Olympus SZX12 fluorescence stereozoom microscope equipped with a 100 W mercury lamp and filter sets for selective excitation and emission of GFP and mCherry.

Tp53 gene = assay: Tp53 silencing by amiR element; design: species or system mouse
Text: For example, silencing of the Tp53 gene can attenuate the P53 L1 sensor (Ardeljan, Steranka et al. 2020) (FIG. 1B), without completely inactivating it. Such an effect is predicted to increase the tolerance of somatic cells to ORFeus reporter expression. We have developed three efficient Tp53 silencing amiR elements. Of these, amiR-mP53/1 capable to produce approximately 20% remaining Tp53 gene expression is currently being tested in our laboratory. Presumably, it will be able to increase the sensitivity of the somatic L1 activity measuring system. However, its application is not essential. Our results so far, at least in our in vivo system, are in conflict with the finding of the authors describing the role of the P53 sensor stating that wild-type retinal pigment epithelium-1 (RPE) cells undergo a TP53-dependent growth arrest in response to L1 (Ardeljan, Steranka et al. 2020). In contrast, ORFeus expressing mouse liver cells are able to regenerate the liver in the absence of p53 silencing (FIG. 3B).

induction of somatic L1 retrotransposition (amount of intron-free EGFP copies, normalized to Olfr16) [1]: weak inducer
Molecule: Nc1ncn([C@H]2C[C@H](O)[C@@H](CO)O2)c(=O)n1 [Decitabine, 5-aza-2′-deoxycytidine]
number of EGFP-expressing cells by FACS compared to controls [2]: higher number; also recorded: confirmed the results obtained with qPCR

Molecule: O=Cc1c2c(cc3c1=Nc1ccccc1-3)=Nc1ccccc1-2 [FICZ, 6-Formylindolo[3,2-b]carbazole]
number of EGFP fluorescent (ORFeus retrotransposition bearing) hepatocyte colonies in liver as compared to non-drug-treated controls [3]: more EGFP fluorescent colonies; also recorded: higher number

Molecule: Cc1cnc2ccc3c(nc(N)n3C)c2n1 [MeIQx, 2-Amino-3,8-Dimethylimidazo[4,5.f]Quinoxaline]
number of EGFP fluorescent (ORFeus retrotransposition bearing) hepatocyte colonies in liver as compared to non-drug-treated controls [3]: higher number

B1: amiR-mP53/1: Tp53 silencing artificial microRNA (amiR) element, SEQ ID NO: 19 (nucleic acid)
DNA: GGGCCCGTGTACCGGTGTGTGAGCTCTGTTTGAATGAGGCTTCAGTACTTTACAGAATCGTTGCCTGCACATCTTGGAAACACTTGCTGGGATTACTTCTTCAGGTTAACCCAACAGAAGGCTCGAGAAGGTATATTGCTGTTGACAGTGAGCGATCACTGCATGGACGATCTGTTTAGTGAAGCCACAGATGTAAACAGATCGTCCATGCAGTGAGTGCCTACTGCCTCGGACTTCAAGGGGCTACTTTAGGAGCAATTATCTTGTTTACTAAAACTGAATACCTTGCTATCTCTTTGATACATTTTTACAAAGCTGAATTAAAATGGTATAAATTAAATCACTTTGTCGACGTGTTCTAGAGTGTGCCGGC
modifications: misc_feature 27..121 Endogenous miR30a 5' flanking; misc_feature 155..176 Target with N1 A mismatch; stem_loop 177..195 loop; misc_feature 196..217 guide; misc_feature 238..347 Endogenous miR30a 3' flanking; amiR-mP53/1 element
remaining Tp53 gene expression (Tp53 gene): approximately 20%
